Laboratory results published in patent US9181196B2, “Pharmaceutical compounds” (KEMOTECH S.r.l., priority 2013, dated 2015).

Experiments:
[1] = molecular target: FGF-2 (Homo sapiens, UniProt P09038); experiment: Competition with biotinylated TS3R domain for binding to immobilized FGF-2 (DELFIA); conditions: for % TS3R/FGF-2 binding vs. control: control = 100% binding, average of 3 experiments
Text: For the evaluation of the binding of the compounds of the invention to FGF-2, the test described in G. Colombo et al. J. Biol. Chem., 285: 8733, 2010 has been used. In this reference the binding test has been used to assay the binding of compound sm27 to FGF-2. Specifically, the test allows to evaluate the capability of the compounds under examination to compete with the biotinylated TS3R domain (the recombinant part of Thrombospondine 1 (TSP-1) containing the bond sequence for FGF-2), for the binding to FGF-2 immobilized on a plastic support.
In detail, FGF-2 (0.1 μg) has been immobilized on 96 well plates (DELFIA microtitration plates, Perkin Elmer) leaving into contact for one night at 4° C. by using known techniques. After saturation of the non specific sites with 1% BSA, the compounds to be tested and then the biotinylated TS3R domain (10 nM) in PBS 1% BSA were added. After a period of incubation of 3 hours, the plate was washed and treated with Eu-Labeled Streptavidin 1:1000 and incubated again for one further hour. The amount of TS3R bound to FGF was determined with DELFIA Enhancement Solution, measuring the resolved fluorescence (Victor, PerkinElmer).
The test was carried out on the compounds of examples 2, 4, 8, 10 and 12. The used concentrations were respectively of 10 and 100 μM. The obtained results are reported in Table 1 and have been expressed as inhibition percentage of the TS3R/FGF-2 binding induced by the compounds of the invention vs. the control (TS3R/FGF-2 binding in the absence of the compounds of the invention). As a reference compound sm27 was used and assayed at a concentration of 100 μM. […] The compounds of the invention in this test are as effective as sm27 at the assayed dose of 100 μM.
By using the test in vitro described in example 17 the binding to FGF-2 of the compounds (2p) and (2r) having the formulas herein below reported, has been assayed. These compounds are disclosed by G. A. Pinna et al. on Il Farmaco 58 (2003) 749-763.

[2] = tested on: Aorta sections (angiogenesis induced by FGF-2); experiment: Angiogenesis test ex vivo (aorta section), FGF-2 induced sprouting in Matrigel; type: cell-based, C57BL/6 mice; conditions: for Sprouting area (% vs. control): FGF-2 30 ng/ml, eleven days, control = 100%
Method: Aorta sections (aorta rings of about 1 mm) taken from C57BL/6 mice, are dipped in a Matrigel gel (BD Biosciences), in 96 well plates, in DMEM 5% FCS containing FGF-2 (30 ng/ml) together with the compounds of the invention at concentrations in the range indicated herein below. By using an inverted microscope (IX70; Olympus) after some days it is observed in the plate the formation of a network of capillary structures irradiating from the aorta section. Images were taken and analyzed by ImageJ 1.41. After eleven days from the beginning of the experiment the angiogenic response is quantified as sprouting area, therefore subtracting the area of the aorta section.
The compounds of the examples 2, 4 and 10 and, as a reference, the reference compound sm27 at concentrations comprised between 50 and 100 μM were used. In Table 4 the results are reported, expressed as a percent variation (decrease) of the sprouting area with respect to that of the control (presence of FGF-2 only).
In FIG. 1 the aorta sections are reported, analyzed after eleven days in absence (left photo—(a)) or in the presence (right photo (b)) of the compound obtained in example 10 (concentration 100 μM). […]

[3] = tested on: BAEC cells; experiment: Inhibition of the proliferation of endothelial cells induced by FGF-2 (Crystal Violet); type: cell-based, Bovine; conditions: Table 6; 100 μM; expressed as in Table 2; average of 3 experiments
[4] = molecular target: T1, FGF-2 binding to BAEC cells (Bovine Aortic Endothelial Cells) (Homo sapiens, UniProt P09038); experiment: Inhibition of the binding of europium-labelled FGF-2 to endothelial cells; type: cell-based; conditions: 100 μM; control = 100% binding; average of 3 experiments
T1 construct: host or cells: added exogenously to BAEC (Bovine Aortic Endothelial Cells)
T1 sequence (P09038 143-288): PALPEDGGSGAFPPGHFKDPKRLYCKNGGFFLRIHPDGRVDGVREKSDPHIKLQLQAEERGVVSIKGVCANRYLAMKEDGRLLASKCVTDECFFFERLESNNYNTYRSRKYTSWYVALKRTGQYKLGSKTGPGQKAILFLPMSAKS
Method: Sub-confluent BAEC cells (Bovine Aortic Endothelial Cells), in 96 well plates, were incubated with DMEM without serum for 30 minutes at 4° C. The compound of the invention to be assayed and FGF-2, labelled with europium (FGF-Eu, 10 ng/ml), were added in DMEM containing 0.15% gelatine and HEPES 25 mM. The plate was incubated for 2 hours at 4° C. After washings with cold medium, the amount of FGF-Eu bound to the cells was determined with DELFIA Enhancement Solution by measuring the time resolved fluorescence (Victor, PerkinElmer).
The compounds obtained in examples 2, 4, 8 and 10 were used at a concentration of 100 μM. As a reference the compound sm27 was used. The obtained results are reported in Table 2 and are expressed as inhibition percentage of the FGF-2 binding to endothelial cells induced by the compounds of the invention and by sm27 vs. the control (FGF-2 bond to endothelial cells in absence of inhibition). The value obtained with the control was assumed as 100% binding.
Example 18 has been repeated by using the two compounds of the prior art (2p) and (2r).

[5] = tested on: BAEC cells; experiment: Inhibition of the proliferation of endothelial cells induced by FGF-2 (Crystal Violet); type: cell-based, Bovine; conditions: FGF-2 5 ng/ml, 72 h
Method: BAEC cells (25000/ml) in DMEM 1.5% FCS were sown in 96 well plates. After 24 h the culture medium was substituted with DMEM 0.5% FCS containing the compounds of the invention at different concentrations in the range indicated herein below, and FGF-2 (5 ng/ml) or 10% FCS, added as stimulator of the cellular proliferation. After 72 h of incubation, the cells were fixed and stained with Crystal Violet, (Sigma). The stain was then eluted by using a solution 1:1 of ethanol and sodium citrate 0.1M and the absorption of the solution determined at the wave length of 540 nm.
In this test the compounds of examples 2, 4, 8 and 10 were used. For each compound several concentrations comprised between 10 and 100 μM were prepared. The obtained results are reported in Table 3 and have been given as percent reduction of the cellular proliferation of endothelial cells in the presence of FGF-2, induced by the compounds of the invention, with respect to the control (proliferation in the presence of FGF-2 only).

Chain of FGF-2 (P09038 143-288, species assumed): as the sequence (P09038 143-288) above

% TS3R/FGF-2 binding vs. control ([1]; 100 μM) [%] | % TS3R/FGF-2 binding vs. control ([1]; 10 μM) [%] | Inhibition of the FGF-2 binding to endothelial cells (% binding FGF-2/endothelial cells vs. control) [4] [%] | Compound | Binding to FGF-2 / inhibition of TS3R/FGF-2 binding, in words ([1]; 100 μM) | Inhibition of the angiogenesis induced by FGF-2 (aorta ring), in words [2] | Sprouting area (% vs. control) ([2]; 100 μM) [%] | Cell proliferation (% vs. control) [3] [%] | Cell proliferation (% vs. control) ([5]; 10 μM, control = 100%) [%] | Cell proliferation (% vs. control) ([5]; 50 μM, control = 100%) [%] | Cell proliferation (% vs. control) ([5]; 100 μM) [%] | Sprouting area (% vs. control) ([2]; 75 μM) [%] | Sprouting area (% vs. control) ([2]; 50 μM) [%]
98 ± 6 | – | – | CN(CCCNC(=O)c1nn(-c2ccc(Cl)cc2Cl)c2c1Cc1ccccc1-2)CCCNC(=O)c1nn(-c2ccc(Cl)cc2Cl)c2c1Cc1ccccc1-2 [Compound (2r), reference compound] | do not show any significant binding to FGF-2 | do not result active in inhibiting the angiogenesis induced by FGF-2 | 91.1 ± 6 | 94 ± 6 | – | – | – | – | –
20 ± 1 | 40 ± 2 | 30 ± 3 | O=C(NCCCCCCNC(=O)c1nn(-c2ccc(Cl)cc2Cl)c2c1Cc1cc(S(=O)(=O)O)sc1-2)c1nn(-c2ccc(Cl)cc2Cl)c2c1Cc1cc(S(=O)(=O)O)sc1-2 [Example 4, 3,3′-(hexane-1,6-diylbis(azanediyl))bis(oxomethylene)bis(1-(2,4-dichlorophenyl)-1,4-dihydro-thieno[3′,2′:4,5]cyclopenta[1,2-c]pyrazole-6-sulfonic acid)] | – | – | 15.8 ± 4 | – | 92 ± 4 | 70 ± 6 | 30 ± 7 | 21.0 ± 5 | –
25 ± 4 | 61 ± 5 | 28 ± 4 | Cc1ccc(Cn2nc(C(=O)NCCCCCCNC(=O)c3nn(Cc4ccc(C)cc4)c4c3Cc3cc(S(=O)(=O)O)sc3-4)c3c2-c2sc(S(=O)(=O)O)cc2C3)cc1 [Example 8, 3,3′-(hexane-1,6-diylbis(azanediyl))bis(oxomethylene)bis(1-(4-methylbenzyl)-1,4-dihydro-thieno[3′,2′:4,5]cyclopenta[1,2-c]pyrazole-6-sulfonic acid)] | – | – | – | – | 95 ± 2 | 80 ± 4 | 36 ± 5 | – | –
96 ± 3 | – | – | CN(CCCNC(=O)c1nn(-c2ccccc2)c2c1Cc1ccccc1-2)CCCNC(=O)c1nn(-c2ccccc2)c2c1Cc1ccccc1-2 [Compound (2p), reference compound] | do not show any significant binding to FGF-2 | do not result active in inhibiting the angiogenesis induced by FGF-2 | 95.5 ± 5 | 97 ± 4 | – | – | – | – | –
13 ± 3 | 25 ± 3 | 22 ± 3 | O=C(NCCCNC(=O)c1nn(-c2ccc(Cl)cc2Cl)c2c1Cc1cc(S(=O)(=O)O)sc1-2)c1nn(-c2ccc(Cl)cc2Cl)c2c1Cc1cc(S(=O)(=O)O)sc1-2 [Example 2, 3,3′-(propane-1,3-diylbis(azanediyl))bis(oxomethylene)bis(1-(2,4-dichlorophenyl)-1,4-dihydro-thieno[3′,2′:4,5]cyclopenta[1,2-c]pyrazole-6-sulfonic acid)] | – | – | 1.8 ± 0.7 | – | 90 ± 3 | 20 ± 4 | 8 ± 3 | 10.5 ± 5 | 43.9 ± 9
17 ± 5 | – | 40 ± 2 | O=C(Nc1ccc2cc(S(=O)(=O)O)cc(O)c2c1)Nc1ccc2cc(S(=O)(=O)O)cc(O)c2c1 [sm27, reference compound] | – | – | 44.0 ± 8 | – | – | – | 60 ± 6 | – | –
